From patent US20230151057A1, “LACTIC ACID BACTERIA GROWTH PROMOTER” (Asahi Group Holdings, Ltd., priority 2020, published 2023)

System: Lactobacillus gasseri (FERM BP-11331)
Assay: Growth-promoting effect on Lactobacillus gasseri in modified MRS medium (particle count)
Format: cell-based
Settings: Example 1, peptide 0.25 mg/mL, 37° C., 18 hours; for Particle concentration: inoculum 1.0×10^7 cells/mL; for Rate of increase: control without peptide = 100%
Description: Nitrogen sources in MRS medium were reduced to find a medium composition that achieves a total bacterial count of about 1.0×10^8 cell/mL to 1.0×10^9 cell/mL after culturing of each of the six bacterial strains Lactobacillus gasseri (FERNM BP-11331), Lactobacillus acidophilus (FERM BP-4981), Lactobacillus amylovorus (FERM BP-11255), Lactobacillus curvatus (NITE P-02033), Lactobacillus plantarum, and Lactobacillus brevis. This composition, named “modified MRS medium”, was used for the evaluation. Here, for the composition of the MRS medium, a composition described in a medium catalog provided by BD (Becton, Dickinson and Company) was used as a reference. The compositions of the MRS medium and the modified MRS medium are as follows. By chemical synthesis, 28 kinds of candidate peptides having the sequences shown below were provided. Each candidate peptide was added to the modified MRS medium at 0.25 mg/mL to provide a medium to be evaluated. The lactic acid bacterium Lactobacillus gasseri was inoculated at 1.0×10^7 cells/mL to the provided medium to be evaluated, and culture was carried out at a temperature of 37° C. for a culture period of 18 hours. The resulting culture was collected, and subjected to measurement of the particle concentration (particles/mL) as a characteristic value that can be used as an index of the bacterial cell growth, using a particle count analyzer (CDA-1000, Sysmex). The rate of increase (%) was calculated relative to a control value obtained using a medium to which no peptide was added, which was taken as 100%. Using the dipeptide LF (Leu-Phe) and an equimolar mixture of leucine (L) and phenylalanine (F), culture was carried out in the same manner as in Example 1, and the growth-promoting effects of the dipeptide and the amino acid mixture on the lactic acid bacterium were evaluated. Using a dipeptide (LF) as the peptide, the growth-promoting effect on a lactic acid bacterium was evaluated in the same manner except that the concentration of the dipeptide added was 0.1 mg/mL, 0.25 mg/mL, or 1.0 mg/mL.

| Substance | Particle concentration [mL⁻¹] | Rate of increase [%] |
| --- | --- | --- |
| HDDKHIIVD (listed as Saccharomyces cerevisiae) [His-Asp-Asp-Lys-His-Ile-Ile-Val-Asp] | 2.25e+08 | 114 |
| Ile-Phe [IF] | 2.01e+08 | 114 |
| Ile-Pro-Gln [IPQ] | 1.82e+08 | 99 |
| Ile-Pro-Gly-Ile (IPGI; listed as Saccharomyces cerevisiae) | 2.19e+08 | 119 |
| Ile-Pro-Ile-Gln (IPIQ; listed as Saccharomyces cerevisiae) | 2.11e+08 | 115 |
| Ile-Pro-Ile-Thr (IPIT; listed as Saccharomyces cerevisiae) | – | 121 |
| Ile-Pro-Thr [IPT] | 1.79e+08 | 98 |
| Ile-Val-Glu [IVE] | 1.81e+08 | 96 |
| Leu-Pro-Gln [LPQ] | 1.97e+08 | 107 |
| Leu-Pro-Leu-Gly (LPLG; listed as Saccharomyces cerevisiae) | 2.2e+08 | 120 |
| Leu-Pro-Thr [LPT] | 1.9e+08 | 104 |
| Leu-Pro-Val-Leu (LPVL; listed as Saccharomyces cerevisiae) | 2.07e+08 | 113 |
| Leu-Val-Glu [LVE] | 1.96e+08 | 104 |
| PNVLPETE (listed as Saccharomyces cerevisiae) [Pro-Asn-Val-Leu-Pro-Glu-Thr-Glu] | 2e+08 | 101 |
| Phe-Leu [FL] | 1.98e+08 | 112 |
| SEYPPLG (listed as Saccharomyces cerevisiae) [Ser-Glu-Tyr-Pro-Pro-Leu-Gly] | 2.36e+08 | 119 |
| Val-Pro-Ile [VPI] | 2.11e+08 | 112 |
| Val-Pro-Leu [VPL] | 2.01e+08 | 107 |
| Val-Pro-Val-Gly (VPVG; listed as Saccharomyces cerevisiae) | 1.76e+08 | 102 |
| WDESRFQ (listed as Saccharomyces cerevisiae) [Trp-Asp-Glu-Ser-Arg-Phe-Gln] | 2.38e+08 | 120 |
